Experimental data from ChEMBL document CHEMBL2429789, “Discovery, Design, and Optimization of Isoxazole Azepine BET Inhibitors” (ACS Med Chem Lett, 2013).
pIC50: −log10 of the molar value. Active and inactive are the calls of the source. No cut-off for these calls is given here.

Biological target: T1, Bromodomain-containing protein 4 (Homo sapiens, UniProt O60885)
Assay: Inhibition of BRD4 in human Raji cells assessed as reduction of MYC expression after 4 hrs
Format: cell-based
Details: not given

pIC50	Compound
6.15	Cc1noc2c1-c1sc(C)c(C)c1C(c1ccc(C#N)cc1)=N[C@H]2[C@@H](C)C(N)=O
6.80	Cc1cc(Cl)ccc1C1=N[C@@H](CC(N)=O)c2onc(C)c2-c2sc(C)c(C)c21
5.68	Cc1noc2c1-c1sc(C)c(C)c1C(c1ccc(Cl)cc1)=N[C@H]2CC(=O)OC(C)(C)C
5.72	Cc1noc2c1-c1sc(C)c(C)c1C(c1ccccc1Cl)=N[C@H]2CC(N)=O
7.04	Cc1noc2c1-c1sc(C)c(C)c1C(c1ccc(C#N)cc1)=N[C@H]2CC(N)=O
5.68	Cc1noc2c1-c1sc(C)c(C)c1C(c1ccc(Cl)cc1)=N[C@H]2Cc1nccs1
5.66	CC(=O)NC[C@@H]1N=C(c2ccc(Cl)cc2)c2c(sc(C)c2C)-c2c(C)noc21
5.72	COC(=O)NC[C@@H]1N=C(c2ccc(Cl)cc2)c2c(sc(C)c2C)-c2c(C)noc21
6.42	Cc1noc2c1-c1sc(C)c(C)c1C(c1ccc(N)nc1)=N[C@H]2CC(N)=O
5.44	Cc1noc2c1-c1sc(C)c(C)c1C(c1ccc(Cl)cc1)=N[C@H]2Cc1ncc[nH]1
6.85	Cc1noc2c1-c1sc(C)c(C)c1C(c1ccc(Cl)cc1)=N[C@H]2CC(N)=O
6.49	CCNC(=O)C[C@@H]1N=C(c2ccc(Cl)cc2)c2c(sc(C)c2C)-c2c(C)noc21
6.33	Cc1noc2c1-c1sc(C)c(C)c1C(c1cccc(Cl)c1)=N[C@H]2CC(N)=O
6.74	Cc1noc2c1-c1sc(C)c(C)c1C(c1ccccc1)=N[C@H]2CC(N)=O
5.82	CCCC1=N[C@@H](CC(N)=O)c2onc(C)c2-c2sc(C)c(C)c21
6.62	Cc1noc2c1-c1sc(C)c(C)c1C(c1ccc(Cl)cn1)=N[C@H]2CC(N)=O

Tested on: not listed separately
Assay: Plasma protein binding in rat
Format: ADME, cell-free
Details: read-out: PPB (converted)

fraction unbound	Compound
0.008	Cc1noc2c1-c1sc(C)c(C)c1C(c1ccc(Cl)cc1)=N[C@H]2CC(N)=O

Tested on: not listed separately
Assay: AUC in mouse at 5 mg/kg, po
Format: ADME, organism-based
Parameters: dose 5 mg/kg, route oral
Details: plasma

AUC [ng·h/mL]	Compound
723	Cc1noc2c1-c1sc(C)c(C)c1C(c1ccc(Cl)cc1)=N[C@H]2CC(N)=O

Tested on: Mus musculus
Assay: Inhibition in MYC expression in tumor of po dosed NOD/SCID Harlan mouse xenografted with human Raji cells
Format: functional, organism-based
Details: not given

Compound	inhibition
Cc1noc2c1-c1sc(C)c(C)c1C(c1ccc(Cl)cc1)=N[C@H]2CC(N)=O	Dose-dependent effect

Tested on: Rattus norvegicus
Assay: […] clearance in rat at 1 mg/kg, iv
Format: ADME, organism-based
Parameters: dose 1 mg/kg, route intravenous
Details: in vivo

CL [mL/min/kg]	Compound
72.5	Cc1noc2c1-c1sc(C)c(C)c1C(c1ccc(C#N)cc1)=N[C@H]2CC(N)=O
46.2	Cc1noc2c1-c1sc(C)c(C)c1C(c1ccc(Cl)cc1)=N[C@H]2CC(N)=O

Tested on: not listed separately
Assay: Drug uptake in tumor of NOD/SCID Harlan mouse xenografted with human Raji cells at 100 mg/kg, po
Format: ADME, organism-based, Neoplasm
Parameters: dose 100 mg/kg, route oral
Details: in vivo, read-out: Drug uptake

concentration [µM]	Compound
5	Cc1noc2c1-c1sc(C)c(C)c1C(c1ccc(Cl)cc1)=N[C@H]2CC(N)=O

Tested on: not listed separately
Assay: Plasma protein binding in mouse
Format: ADME, cell-free
Details: read-out: PPB (converted)

fraction unbound	Compound
0.019	Cc1noc2c1-c1sc(C)c(C)c1C(c1ccc(Cl)cc1)=N[C@H]2CC(N)=O

Tested on: Mus musculus
Assay: Inhibition of MYC expression in tumor of NOD/SCID Harlan mouse xenografted with human Raji cells at 100 mg/kg, po up to 8 hrs
Format: functional, organism-based
Parameters: dose 100 mg/kg
Details: not given

Compound	inhibition
Cc1noc2c1-c1sc(C)c(C)c1C(c1ccc(Cl)cc1)=N[C@H]2CC(N)=O	Active

Tested on: Canis familiaris
Assay: Intrinsic clearance in dog at 1 mg/kg, iv
Format: ADME, organism-based, Canis lupus familiaris
Parameters: dose 1 mg/kg, route intravenous
Details: in vivo

CL [mL/min/kg]	Compound
5.33	Cc1noc2c1-c1sc(C)c(C)c1C(c1ccc(Cl)cc1)=N[C@H]2CC(N)=O

Biological target: CYP3A4 (Homo sapiens, UniProt P08684)
Sequence (P08684 whole entry): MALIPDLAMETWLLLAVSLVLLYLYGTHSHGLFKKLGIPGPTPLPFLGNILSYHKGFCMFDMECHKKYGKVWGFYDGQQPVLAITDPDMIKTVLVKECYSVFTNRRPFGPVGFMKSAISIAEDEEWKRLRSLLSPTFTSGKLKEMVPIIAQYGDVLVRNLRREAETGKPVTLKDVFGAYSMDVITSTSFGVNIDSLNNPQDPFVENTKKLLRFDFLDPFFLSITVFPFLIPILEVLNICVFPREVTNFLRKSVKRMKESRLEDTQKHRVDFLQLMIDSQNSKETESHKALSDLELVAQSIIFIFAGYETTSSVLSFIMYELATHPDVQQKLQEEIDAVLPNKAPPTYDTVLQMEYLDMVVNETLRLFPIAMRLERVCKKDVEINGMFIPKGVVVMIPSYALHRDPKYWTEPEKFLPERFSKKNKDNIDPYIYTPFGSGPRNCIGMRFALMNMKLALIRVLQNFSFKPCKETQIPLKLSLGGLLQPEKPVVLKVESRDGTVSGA
Assay: Inhibition of CYP3A4 (unknown origin) at 10 uM
Format: ADME
Details: not given

inhibition at 10 µM [%]	Compound
0	Cc1noc2c1-c1sc(C)c(C)c1C(c1ccc(C#N)cc1)=N[C@H]2CC(N)=O
20	Cc1noc2c1-c1sc(C)c(C)c1C(c1ccc(N)nc1)=N[C@H]2CC(N)=O
20	Cc1noc2c1-c1sc(C)c(C)c1C(c1ccc(Cl)cc1)=N[C@H]2CC(N)=O
1	Cc1noc2c1-c1sc(C)c(C)c1C(c1ccccc1)=N[C@H]2CC(N)=O

Tested on: not listed separately
Assay: Volume of distribution at steady state in rat at 1 mg/kg, iv
Format: ADME, organism-based
Parameters: dose 1 mg/kg, route intravenous
Details: in vivo, read-out: Vdss

Vd [L/kg]	Compound
2.22	Cc1noc2c1-c1sc(C)c(C)c1C(c1ccc(C#N)cc1)=N[C@H]2CC(N)=O
2.45	Cc1noc2c1-c1sc(C)c(C)c1C(c1ccc(Cl)cc1)=N[C@H]2CC(N)=O

Tested on: not listed separately
Assay: AUC in rat at 5 mg/kg, po
Format: ADME, organism-based
Parameters: dose 5 mg/kg, route oral
Details: plasma

AUC [ng·h/mL]	Compound
504	Cc1noc2c1-c1sc(C)c(C)c1C(c1ccc(C#N)cc1)=N[C@H]2CC(N)=O
605	Cc1noc2c1-c1sc(C)c(C)c1C(c1ccc(Cl)cc1)=N[C@H]2CC(N)=O

Tested on: not listed separately
Assay: Half life in rat at 1 mg/kg, iv
Format: ADME, organism-based
Parameters: dose 1 mg/kg, route intravenous
Details: in vivo

half-life [h]	Compound
0.393	Cc1noc2c1-c1sc(C)c(C)c1C(c1ccc(C#N)cc1)=N[C@H]2CC(N)=O
1.39	Cc1noc2c1-c1sc(C)c(C)c1C(c1ccc(Cl)cc1)=N[C@H]2CC(N)=O

Tested on: not listed separately
Assay: Intrinsic clearance in mouse liver microsomes
Format: ADME, Microsome
Details: read-out: CLH

microsomal CLint [µL/min/mg]	Compound
140	Cc1noc2c1-c1sc(C)c(C)c1C(c1ccc(Cl)cc1)=N[C@H]2CC(N)=O

Tested on: not listed separately
Assay: Intrinsic clearance in rat liver microsomes
Format: ADME, Microsome
Details: read-out: CLH

microsomal CLint [µL/min/mg]	Compound
8.9	Cc1noc2c1-c1sc(C)c(C)c1C(c1ccc(C#N)cc1)=N[C@H]2CC(N)=O
18	Cc1noc2c1-c1sc(C)c(C)c1C(c1ccc(N)nc1)=N[C@H]2CC(N)=O
27	Cc1noc2c1-c1sc(C)c(C)c1C(c1ccc(Cl)cc1)=N[C@H]2CC(N)=O
160	Cc1noc2c1-c1sc(C)c(C)c1C(c1ccccc1)=N[C@H]2CC(N)=O

Tested on: Mus musculus
Assay: Inhibition in MYC expression in tumor of NOD/SCID Harlan mouse xenografted with human Raji cells at 100 mg/kg, po
Format: functional, organism-based
Parameters: dose 100 mg/kg
Details: not given

Compound	inhibition
Cc1noc2c1-c1sc(C)c(C)c1C(c1ccc(Cl)cc1)=N[C@H]2CC(N)=O	Active

Tested on: Mus musculus
Assay: Inhibition of MYC expression in tumor of NOD/SCID Harlan mouse xenografted with human Raji cells at 100 mg/kg, po after 8 hrs relative to control
Format: functional, organism-based
Parameters: dose 100 mg/kg
Details: not given

Compound	inhibition
Cc1noc2c1-c1sc(C)c(C)c1C(c1ccc(Cl)cc1)=N[C@H]2CC(N)=O	inactive

Tested on: Mus musculus
Assay: Inhibition in MYC expression in tumor of NOD/SCID Harlan mouse xenografted with human Raji cells at 100 mg/kg, po after 4 hrs
Format: functional
Details: not given

Compound	inhibition in vivo at 100 mg/kg [%]
Cc1noc2c1-c1sc(C)c(C)c1C(c1ccc(Cl)cc1)=N[C@H]2CC(N)=O	75

Tested on: not listed separately
Assay: Oral bioavailability in rat at 5 mg/kg
Format: ADME, organism-based
Details: in vivo

bioavailability [%]	Compound
44	Cc1noc2c1-c1sc(C)c(C)c1C(c1ccc(C#N)cc1)=N[C@H]2CC(N)=O
31	Cc1noc2c1-c1sc(C)c(C)c1C(c1ccc(Cl)cc1)=N[C@H]2CC(N)=O

Tested on: Plasma
Assay: Stability of the compound in rat plasma
Format: ADME, cell-free
Details: not given

Stability	Compound
Unstable	Cc1noc2c1-c1sc(C)c(C)c1C(c1ccc(C#N)cc1)=N[C@H]2CC(N)=O
Unstable	Cc1noc2c1-c1sc(C)c(C)c1C(c1ccc(N)nc1)=N[C@H]2CC(N)=O
Unstable	Cc1noc2c1-c1sc(C)c(C)c1C(c1ccccc1)=N[C@H]2CC(N)=O

Biological target: T1, Bromodomain-containing protein 4
Assay: Inhibition of His-FLAG-tagged BRD4 binding domain1 (unknown origin) binding to H4-TetraAc-biotin peptide after 20 mins by AlphaLISA
Details: not given

pIC50	Compound
5.21	Cc1noc2c1-c1sc(C)c(C)c1C(C1CCOCC1)=N[C@H]2CC(N)=O
6.60	Cc1noc2c1-c1sc(C)c(C)c1C(c1ccc(C#N)cc1)=N[C@H]2[C@@H](C)C(N)=O
7.38	Cc1cc(Cl)ccc1C1=N[C@@H](CC(N)=O)c2onc(C)c2-c2sc(C)c(C)c21
6.54	Cc1noc2c1-c1sc(C)c(C)c1C(c1ccc(Cl)cc1)=N[C@H]2CC(=O)OC(C)(C)C
6.60	Cc1noc2c1-c1sc(C)c(C)c1C(c1ccccc1Cl)=N[C@H]2CC(N)=O
7.48	Cc1noc2c1-c1sc(C)c(C)c1C(c1ccc(C#N)cc1)=N[C@H]2CC(N)=O
6.72	Cc1noc2c1-c1sc(C)c(C)c1C(c1ccc(Cl)cc1)=N[C@H]2Cc1nccs1
6.72	CC(=O)NC[C@@H]1N=C(c2ccc(Cl)cc2)c2c(sc(C)c2C)-c2c(C)noc21
7.07	COC(=O)NC[C@@H]1N=C(c2ccc(Cl)cc2)c2c(sc(C)c2C)-c2c(C)noc21
7.14	Cc1noc2c1-c1sc(C)c(C)c1C(c1ccc(N)nc1)=N[C@H]2CC(N)=O
6.70	Cc1noc2c1-c1sc(C)c(C)c1C(c1ccc(Cl)cc1)=N[C@H]2Cc1ncc[nH]1
7.59	Cc1noc2c1-c1sc(C)c(C)c1C(c1ccc(Cl)cc1)=N[C@H]2CC(N)=O
7.44	CCNC(=O)C[C@@H]1N=C(c2ccc(Cl)cc2)c2c(sc(C)c2C)-c2c(C)noc21
5.68	CCNC(=O)C[C@H]1N=C(c2ccc(Cl)cc2)c2c(sc(C)c2C)-c2c(C)noc21
4.48	Cc1noc(N)c1-c1ccccc1
7.13	Cc1noc2c1-c1sc(C)c(C)c1C(c1cccc(Cl)c1)=N[C@H]2CC(N)=O
7.54	Cc1noc2c1-c1sc(C)c(C)c1C(c1ccccc1)=N[C@H]2CC(N)=O
5.96	Cc1noc2c1-c1sc(C)c(C)c1C(N1CCOCC1)=N[C@H]2CC(N)=O
6.52	CCCC1=N[C@@H](CC(N)=O)c2onc(C)c2-c2sc(C)c(C)c21
5.24	Cc1noc2c1-c1sc(C)c(C)c1C(Cc1ccccc1)=N[C@H]2CC(N)=O
7.14	Cc1noc2c1-c1sc(C)c(C)c1C(c1ccc(Cl)cn1)=N[C@H]2CC(N)=O
5.60	Cc1noc2c1-c1sc(C)c(C)c1C(c1cncnc1)=N[C@H]2CC(N)=O

Tested on: not listed separately
Assay: Half life in dog at 1 mg/kg, iv
Format: ADME, organism-based, Canis lupus familiaris
Parameters: dose 1 mg/kg, route intravenous
Details: in vivo

half-life [h]	Compound
3	Cc1noc2c1-c1sc(C)c(C)c1C(c1ccc(Cl)cc1)=N[C@H]2CC(N)=O

Tested on: not listed separately
Assay: Intrinsic clearance in dog liver microsomes
Format: ADME, Canis lupus familiaris, Microsome
Details: read-out: CLH

microsomal CLint [µL/min/mg]	Compound
11	Cc1noc2c1-c1sc(C)c(C)c1C(c1ccc(Cl)cc1)=N[C@H]2CC(N)=O

Tested on: not listed separately
Assay: Plasma protein binding in human
Format: ADME, cell-free
Details: read-out: PPB (converted)

fraction unbound	Compound
0.041	Cc1noc2c1-c1sc(C)c(C)c1C(c1ccc(C#N)cc1)=N[C@H]2CC(N)=O
0.006	Cc1noc2c1-c1sc(C)c(C)c1C(c1ccc(N)nc1)=N[C@H]2CC(N)=O
0.006	Cc1noc2c1-c1sc(C)c(C)c1C(c1ccc(Cl)cc1)=N[C@H]2CC(N)=O
0.018	Cc1noc2c1-c1sc(C)c(C)c1C(c1ccccc1)=N[C@H]2CC(N)=O

Tested on: not listed separately
Assay: Volume of distribution at steady state in dog at 1 mg/kg, iv
Format: ADME, organism-based, Canis lupus familiaris
Parameters: dose 1 mg/kg, route intravenous
Details: in vivo, read-out: Vdss

Vd [L/kg]	Compound
1.27	Cc1noc2c1-c1sc(C)c(C)c1C(c1ccc(Cl)cc1)=N[C@H]2CC(N)=O

Tested on: not listed separately
Assay: Intrinsic clearance in human liver microsomes
Format: ADME, Microsome
Details: read-out: CLH

microsomal CLint [µL/min/mg]	Compound
4.6	Cc1noc2c1-c1sc(C)c(C)c1C(c1ccc(C#N)cc1)=N[C@H]2CC(N)=O
5.4	Cc1noc2c1-c1sc(C)c(C)c1C(c1ccc(N)nc1)=N[C@H]2CC(N)=O
5.5	Cc1noc2c1-c1sc(C)c(C)c1C(c1ccc(Cl)cc1)=N[C@H]2CC(N)=O
2.4	Cc1noc2c1-c1sc(C)c(C)c1C(c1ccccc1)=N[C@H]2CC(N)=O
